# Measurements reported in patent publication US20120184504A1, “"The Use of a PAR-1 Antagonist in Combination with a P2Y12 ADP Receptor Antagonist for Inhibition of Thrombosis"” (priority 2009, published 2012).
# Key:
# [1] = system: platelet-dependent thrombus formation (cyclic flow reductions); experiment: Folts model of thrombosis: cyclic flow reductions (CFRs) in the carotid artery; assay type: in vivo, cynomolgus monkeys; conditions: for EC50 (dose regimen needed for 50% reduction in CFRs): from dose-response curve, Inhibitory Effect Emax model
# Text: The procedures used in this study are similar to the acute artery occlusion model developed by Folts and others. (Cook J J, Sitko G R, Bednar B, Condra C, Mellott M J, Feng D M, Nutt R F, Shafer J A, Gould R J, Connolly T M. An antibody against the exosite of the cloned thrombin receptor inhibits experimental arterial thrombosis in the African green monkey. Circulation. 1995; 91:2961-2971. Folts J. An in vivo model of experimental arterial stenosis, intimal damage, and periodic thrombosis. Circulation. 1991; 83(Suppl):IV3-IV14. Mousa S A, DeGrado W F, Mu D X, Kapil R P, Lucchesi B R, Reilly T M. Oral antiplatelet, antithrombotic efficacy of DMP 728, a novel platelet GPIIb/IIIa antagonist. Circulation. 1996; 93:537-543. Wu D, Vanhoorelbeke K, Cauwenberghs N, Meiring M, Depraetere H, Kotze H F, Deckmyn H. Inhibition of the von Willebrand (VWF)-collagen interaction by an antihuman VWF monoclonal antibody results in abolition of in vivo arterial platelet thrombus formation in baboons. Blood. 2002; 99:3623-3628).
# Cynomolgus monkeys were sedated with ketamine HCl (10 mg/kg, IM) followed by anesthetization with sodium pentobarbital 20 mg/kg i.v. bolus and an infusion of 5 mg/kg/h i.v. for the duration of the experiment. Body temperature was maintained at 37°-39° C., and fluids infused were warmed to body temperature. The right carotid artery was exposed and dissected free of surrounding tissue, and a transonic flow probe of appropriate size was placed around the vessel. A Lexan constrictor (5 mm length) was placed onto the carotid artery. The constrictor was sized to abolish reactive hyperemia and to reduce mean carotid blood flow by no more than 50%-60%. Mechanical damage to the endothelium was induced in the constricted segment of the artery. Cyclic flow reductions due to platelet-dependent thrombus formation occurred shortly after placement of the constrictor over the region of endothelial damage. These gradual declines in carotid blood flow were occasionally interrupted spontaneously, but frequently required manual restoration by gently shaking the vessel. Flow reductions would typically return in 3-4 minutes. CFR frequency was calculated as the number of such cycles (CFRs) over a 30-minute period. On the basis of pilot studies, CFRs were evaluated in a maximum of four consecutive 30-minute collection periods, and mechanically mediated endothelial injury was performed at 30-minute intervals to ensure exposure of the thrombogenic endothelium.
# Animals instrumented to produce CFRs were administered SCH 602539, cangrelor, or a combination of SCH 602539 and cangrelor. The dosing regimens of SCH 602539 were selected to provide a broad range of inhibition of platelet aggregation induced by 1 μM thrombin receptor agonist peptide (TRAP), whereas the doses of cangrelor were selected to achieve 50%-60% inhibition of platelet aggregation induced by 10 μM ADP (the degree of inhibition obtained with clopidogrel). Group 1 received drug vehicle only (20% hydroxypropyl betacyclodextran or saline, 2 mL i.v.). Group 2 received SCH 602539 dissolved in 20% hydroxypropyl betacyclodextran administered as sequential i.v. boluses of 0.1, 0.3, or 1 mg/kg, at 30-minute intervals. Group 3 received cangrelor dissolved in saline and administered as an intravenous infusion of 0.1, 0.2, or 0.3 μg/kg/min for 30 minutes each. Group 4 received a combination of SCH 602539 bolus plus cangrelor infusion (at respective doses of: 1) 0.05 mg/kg+0.05 μg/kg/min; 2) 0.1 mg/kg+0.1 μg/kg/min; and 3) 0.15 mg/kg+0.1 μg/kg/min. The three dose regimens within each group were administered sequentially over the consecutive 30-minute periods coinciding with the re-induction of endothelial injury. […]
# [2] = Prothrombin time (PT) in plasma, Folts model animals; assay type: in vivo, cynomolgus monkeys; conditions: for PT: i.v.; for effect on PT: tested doses
# Description: Animals instrumented to produce CFRs were administered SCH 602539, cangrelor, or a combination of SCH 602539 and cangrelor. The dosing regimens of SCH 602539 were selected to provide a broad range of inhibition of platelet aggregation induced by 1 μM thrombin receptor agonist peptide (TRAP), whereas the doses of cangrelor were selected to achieve 50%-60% inhibition of platelet aggregation induced by 10 μM ADP (the degree of inhibition obtained with clopidogrel). Group 1 received drug vehicle only (20% hydroxypropyl betacyclodextran or saline, 2 mL i.v.). Group 2 received SCH 602539 dissolved in 20% hydroxypropyl betacyclodextran administered as sequential i.v. boluses of 0.1, 0.3, or 1 mg/kg, at 30-minute intervals. Group 3 received cangrelor dissolved in saline and administered as an intravenous infusion of 0.1, 0.2, or 0.3 μg/kg/min for 30 minutes each. Group 4 received a combination of SCH 602539 bolus plus cangrelor infusion (at respective doses of: 1) 0.05 mg/kg+0.05 μg/kg/min; 2) 0.1 mg/kg+0.1 μg/kg/min; and 3) 0.15 mg/kg+0.1 μg/kg/min. The three dose regimens within each group were administered sequentially over the consecutive 30-minute periods coinciding with the re-induction of endothelial injury. Study drug or vehicle was administered after stable CFRs were achieved, and upon the completion of a 30-minute baseline CFR collection period, drug(s) or vehicle were administered incrementally (every 30 minutes) either as a bolus (SCH 602539) or as an infusion (cangrelor), and their effects on CFRs were monitored in the next three 30-minute observation periods. Blood samples (3 mL) were collected from the femoral arterial catheter at the end of each 30-minute observation period for assessment of ex vivo platelet aggregation and coagulation parameters.
# Platelet aggregation studies were performed ex viva on blood samples obtained from the monkeys subjected to the Folts model, using a ChronoLog whole blood aggregometer (Model 540VS, Havertown, Pa.). Briefly, 0.5 mL of blood was incubated with 0.5 mL of normal saline at 37° C. in a cuvette containing a stir bar for 2 minutes. Platelet agonists used in this study included TRAP (3 μM), ADP (10 μM), the thromboxane A2 mimetic U46619 (10 μM), and collagen (3 μg/mL). Platelet aggregation was monitored for 5 minutes following the addition of the agonist. The peak aggregation response was recorded in ohms. In addition, standard coagulation parameters, including prothrombin time (PT), activated partial thromboplastin time (APTT), and activated clotting time (ACT), were assessed.
# PT and APTT assays were performed with plasma, while the ACT assay was performed with whole blood. Data are presented as mean±SEM (n=5-6/group).
compound,measurement,setting,value
CCOC(=O)N[C@@H]1CC[C@@H]2[C@@H](C1)C[C@H]1C(=O)O[C@H](C)[C@H]1[C@H]2/C=C/c1ccc(-c2ccccn2)cn1 [SCH 602539],CFR frequency reduced from baseline,[1]; SCH 602539 0.1 mg/kg i.v. bolus,approximately 50%
same,CFRs,"[1]; SCH 602539 0.1 mg/kg i.v. bolus, CFRs per 30-minute period, baseline 8.7 + 0.6",4.3 + 1.3
same,animals in which CFRs were completely abolished,[1]; SCH 602539 0.3 mg/kg,4 of 6
same,CFR frequency reduced from baseline,"[1]; SCH 602539 0.3 mg/kg i.v. bolus, P<0.05 versus vehicle",> 80%
same,CFRs,"[1]; SCH 602539 0.3 mg/kg i.v. bolus, per 30-minute period, baseline 8.7 + 0.6",1.7 + 1.2
same,animals in which CFRs were completely abolished,[1]; SCH 602539 1.0 mg/kg,4 of 6
same,CFR frequency reduced from baseline,"[1]; SCH 602539 1.0 mg/kg i.v. bolus, P<0.05 versus vehicle",> 80%
same,CFRs,"[1]; SCH 602539 1.0 mg/kg i.v. bolus, per 30-minute period, baseline 8.7 + 0.6",1.8 + 1.3
same,EC50 (dose regimen needed for 50% reduction in CFRs),[1]; i.v. bolus,0.10 ± 0.042 mg/kg
same,PT,"[2]; SCH 602539 0.1 mg/kg, bolus, plasma, baseline 11.6 ± 0.4",11.5 ± 0.2 s
same,PT,"[2]; SCH 602539 0.3 mg/kg, bolus, baseline 11.6 ± 0.4",11.8 ± 0.4 s
same,PT,"[2]; SCH 602539 1.0 mg/kg, bolus, baseline 11.6 ± 0.4",12.8 ± 1.1 s
same,effect on PT,[2],no effect
CSCCNc1nc(SCCC(F)(F)F)nc2c1ncn2[C@@H]1O[C@H](COP(=O)(O)OP(=O)(O)C(Cl)(Cl)P(=O)(O)O)[C@@H](O)[C@H]1O [Cangrelor],CFRs,"[1]; Cangrelor 0.1 μg/kg/min i.v. infusion 30 min, per 30-minute period, baseline 9.5 + 0.9",5.7 + 1.5
same,CFRs,"[1]; Cangrelor 0.2 μg/kg/min i.v. infusion 30 min, baseline 9.5 + 0.9",3.2 + 1.7
same,CFRs,"[1]; Cangrelor 0.3 μg/kg/min i.v. infusion 30 min, baseline 9.5 + 0.9",1.2 + 1.3
same,CFR frequency reduced from baseline,[1]; cangrelor 0.1 μg/kg/min 30-minute infusion,approximately 40%
same,CFR frequency reduced from baseline,"[1]; cangrelor 0.2 μg/kg/min 30-minute infusion, significant versus vehicle",~70%
same,CFR frequency reduced from baseline,"[1]; cangrelor 0.3 μg/kg/min 30-minute infusion, significant versus vehicle",~90%
same,animals in which CFRs were completely prevented,[1]; cangrelor highest dose (0.3 μg/kg/min),5/6
same,animals in which CFRs were completely prevented,[1]; cangrelor intermediate dose (0.2 μg/kg/min),3/6
same,complete suppression of CFRs,[1]; cangrelor lowest dose (0.1 μg/kg/min),No complete suppression
same,EC50 (dose regimen needed for 50% reduction in CFRs),[1]; i.v. infusion,0.099 ± 0.039 µg/kg/min
same,PT,"[2]; Cangrelor 0.1 μg/kg/min × 30 min, plasma, mean±SEM, baseline 10.6 ± 0.4",10.4 ± 0.3 s
same,PT,"[2]; Cangrelor 0.2 μg/kg/min × 30 min, baseline 10.6 ± 0.4",10.8 ± 0.6 s
same,PT,"[2]; Cangrelor 0.3 μg/kg/min × 30 min, baseline 10.6 ± 0.4",10.7 ± 0.6 s
same,effect on PT,[2],no effect
